{"source": "patent US11197856B2", "about": "“Bicyclic compounds and methods for their use in treating autism” (priority 2013, dated 2021)", "key": {"cerebellar explants": {"tested_on": "cerebellar explants", "experiment": "Cerebellar explants, glutamate/3-nitropropionic acid neurotoxicity", "type": "cell-based, Wistar rats", "method": "Cover slips were placed into a large Petri dish and washed in 70% alcohol for 5 minutes, then washed with Millipore H2O. The cover slips were air dried, and coated with Poly-D-Lysine (1 mg/ml stock solution in PBS, 90-100 μl) for 2 hours at 34° C.\nPostnatal day 8 Wistar rats were used for the study. The rats were sacrificed and placed in ice for 1 minute, decapitated and the cerebellum removed and placed on ice. Cerebellum tissue was placed in 1 ml of 0.65% glucose-supplemented PBS (10 μl 65% stock D (+)glucose/1 ml PBS) in a large Petri dish, chopped up into smaller sections and triturated with a 1 ml insulin syringe via a 23 G (0.4 mm) needle, and then squirted back into the glucose solution in the large Petri dish. The tissue was sieved through (125 μm pore size gauze) and centrifuged (2 minutes at 60 g) twice to exchange the medium into serum-free BSA-supplemented START V medium (Biochrom, Germany). The second centrifugation step was done with 1 ml of START V medium. The microexplants were reconstituted into 500 μl of START V medium and put on ice.\nTwo hours after PDL-coating, the slides were washed with Millipore H2O and air dried. Each slide was placed into a small Petri dish (diameter: 35 mm) and 40 μl of START V/cell suspension was added. The tissue was incubated for 2 hours at 34° C. (settlement period). START V-medium (1 ml) was then added to the Petri dish and cultivated at 34° C. in the presence of 5% CO2 in air at 100% humidity for 48 hours.\nFor the study, certain explant cultures were exposed to vehicle (PBS) only. In the first study (Study 1) 10 μl of toxin 1 (L-glutamate—100 mM in Millipore water; final concentration; 1 mM) and 10 μl of toxin 2 (3-nitropropionic acid—50 mM—pH 7—in Millipore water, final concentration: 0.5 mM) was applied simultaneously with the drug to be tested ([…]). In each case, the drugs were left in contact with the explants for the duration of the study.\nAfter explants were exposed to drugs for the study period, cells were then rinsed in PBS and then fixed in increasing concentrations of paraformaldehyde (500 μl of 0.4% PFA was applied; then 1.2% PFA; then 3% PFA and finally 4% PFA (each fixation step: 2-3 minutes). Finally, the microexplants were rinsed in PBS.\nNeurons in the explants were then evaluated for morphology (presence of neurites) and counted as live cells per microscopic field. Four fields displaying highest cell density were counted per cover slip and the data presented as mean±standard error of the mean (SEM); n=4 each. Statistical significance was evaluated by using the non-paired Student's t-test."}, "[1]": {"tested_on": "animals with scopolamine-induced memory impairment", "experiment": "Morris Water Maze (MWM) test with scopolamine-induced memory impairment", "type": "in vivo, Wistar rats", "details": "scopolamine 0.3 mg/kg i.p.; day 4 of acquisition", "from_the_text": "The first part of the study involved acute testing of cG-2-AllylP in the Morris Water Maze Memory (MWM) model. The MWM test is one of the most frequently used tests for assessing spatial memory in rats and is well recognized to accurately predict effects of disease and treatment on spatial memory generally. Therefore, the MWM test reflects effects of disease and treatment in human subjects. The standard procedure for MWM was followed. We used a circular swimming pool (80 cm depth×150 cm diameter) filled with opaque water, with the temperature maintained at 20° C. […] On days 1-4 of the experiment rats underwent memory acquisition trials with 6 trials (60 seconds each) in each day of testing (habituation phase). Latency to reach the platform was recorded and the daily reduction of average latency was used to measure the capability to learn where the hidden platform was. […] Experimental groups are detailed in the Table 4 below. On […], the probe MWM test was performed with the platform removed. There were 6 trials, each of maximum duration of 60s, at least 3 min rest between trials). […] Data was collected and analysed using Any-maze (v4.2) software. The data generated from behavioural tests was analysed using one-way ANOVA for determining the difference between the aged-groups. […]"}}}
{"smiles": "N[C@@H](CCC(=O)O)C(=O)O", "note": "[Glutamate, L-glutamate, reference compound]", "values": [{"measurement": "loss of cerebellar neurons having neurites", "setting": "cerebellar explants; glutamate 1 mM vs vehicle-treated controls", "result": "~85", "unit": "%"}]}
{"smiles": "CN1[C@@H]2C[C@@H](OC(=O)[C@H](CO)c3ccccc3)C[C@H]1[C@@H]1O[C@@H]12", "note": "[scopolamine, reference compound]", "values": [{"measurement": "time to platform", "setting": "[1]", "result": "approximately 208 % of control"}]}
{"smiles": "C[C@@]12CCCN1C(=O)C1(CCCC1)NC2=O", "note": "[Cyclic cyclopentyl-G-2MeP, (8aS)-Methyl-spiro[cyclopentane-1,3(4H)-tetrahydropyrrolo[1,2-a]pyrazine]-1,4(2H)-dione]", "values": [{"measurement": "numbers of cells having neurites", "setting": "cerebellar explants; administered simultaneously with glutamate", "result": "significantly increased the number of cells having neurites"}, {"measurement": "glutamate-induced neurotoxicity", "setting": "cerebellar explants; low doses (cG-2-AllylP: 100 pm to 10 nm)", "result": "significant decrease in glutamate-induced neurotoxicity"}]}
